Experiments:
[1] = target: T1, human recombinant BTK C481S protein (Homo sapiens, UniProt Q06187, C481S); assay: BTK C481S activity inhibition assay (HTRF kinase assay); assay type: biochemical; settings: 35 μM ATP
T1 construct: made in house
Experimental: In vitro kinase assay was used to evaluate the effects of compounds of the present invention on BTK C481S activity (Table 1).
By using the homogeneous time-resolved fluorescence (HTRF) kinase detection kit (Cisbio, catalog number 62TK0PEC), the enzymatic activity of BTK C481S is determined by detecting the phosphorylation level of the substrate in the kinase reaction. […]
(§1) Add 4 μL test compound solution and 2 μL kinase reaction solution to a 384-well detection plate (Corning, catalog number 3674), mix well and incubate at room temperature for 15 minutes; add 4 μL substrate reaction solution and incubate for 50 minutes; add 10 μL detection buffer, mix well and stand for 60 minutes; detect signal at 620 nm and 665 nm using an Envision plate reader (Perkin Elmer). The signal value (absorbance at 665 nm/absorbance at 620 nm) is positively correlated with the degree of phosphorylation of the substrate, thereby detecting the kinase activity of BTK C481S. […] The inhibition curve is plotted and the corresponding IC50 value of the test compound is calculated using XLfit software (ID Business Solutions Ltd., UK).

[2] = target: T2, human-derived recombinant BTK protein (Homo sapiens, UniProt Q06187); assay: BTK activity inhibition assay (HTRF kinase assay); assay type: biochemical; settings: 40 μM ATP
T2 construct: purchased Carna Biosciences 08-180
Experimental: In vitro kinase assay was used to evaluate the effects of compounds of the present invention on BTK activity (Table 1).
By using the homogeneous time-resolved fluorescence (HTRF) kinase detection kit (Cisbio, catalog number 62TK0PEC), the enzymatic activity of BTK is determined by detecting the phosphorylation level of the substrate in the kinase reaction. […]
as §1, with “BTK.” for “BTK C481S.”

[3] = Brain penetration activity test in rats; assay type: in vivo; settings: for Brain penetration (result in words): male Sprague Dawley rats, oral 5 mg/kg; for Kp at 8 h: male, Sprague Dawley, rat, brain tissue homogenate / plasma, po, 5 mg/kg, AUCbrain/AUCplasma, samples at 1, 2, 4 and 8 hours
Experimental: “CSF/plasma ratio (Kp, CSF)” refers to the ratio of a compound concentration in cerebrospinal fluid (CSF) vs. in plasma. The ability of a compound to cross blood-brain barrier (BBB) is assessed by measuring its concentrations in CSF and plasma in rodents, and determining the ratio (Kp, CSF).
Compound A or B in a 0.5 mg/mL solution containing 5% N,N-dimethylacetamide+10% solutol+85% saline was orally administered to twelve male Sprague Dawley rats at a dose of 5 mg/kg. Samples of plasma, brain tissue homogenate (for measuring Kp, brain) and cerebrospinal fluid (for measuring Kp, CSF) were collected at 1, 2, 4 and 8 hours after administration (from three animals at each time point).
The concentrations of the compound in plasma, brain tissue homogenate, and CSF were quantified by LC-MS/MS using an API-4500 mass spectrometer, respectively. The limit of quantification (LOQ) of analysis was 1 ng/mL. The pharmacokinetic (PK) parameters were calculated by the non-compartmental method using WinNonlin. Each of Kp, brain and Kp, CSF was calculated as AUCbrain/AUCplasma and AUCCSF/AUCplasma, respectively.

T2 sequence (Q06187 whole entry): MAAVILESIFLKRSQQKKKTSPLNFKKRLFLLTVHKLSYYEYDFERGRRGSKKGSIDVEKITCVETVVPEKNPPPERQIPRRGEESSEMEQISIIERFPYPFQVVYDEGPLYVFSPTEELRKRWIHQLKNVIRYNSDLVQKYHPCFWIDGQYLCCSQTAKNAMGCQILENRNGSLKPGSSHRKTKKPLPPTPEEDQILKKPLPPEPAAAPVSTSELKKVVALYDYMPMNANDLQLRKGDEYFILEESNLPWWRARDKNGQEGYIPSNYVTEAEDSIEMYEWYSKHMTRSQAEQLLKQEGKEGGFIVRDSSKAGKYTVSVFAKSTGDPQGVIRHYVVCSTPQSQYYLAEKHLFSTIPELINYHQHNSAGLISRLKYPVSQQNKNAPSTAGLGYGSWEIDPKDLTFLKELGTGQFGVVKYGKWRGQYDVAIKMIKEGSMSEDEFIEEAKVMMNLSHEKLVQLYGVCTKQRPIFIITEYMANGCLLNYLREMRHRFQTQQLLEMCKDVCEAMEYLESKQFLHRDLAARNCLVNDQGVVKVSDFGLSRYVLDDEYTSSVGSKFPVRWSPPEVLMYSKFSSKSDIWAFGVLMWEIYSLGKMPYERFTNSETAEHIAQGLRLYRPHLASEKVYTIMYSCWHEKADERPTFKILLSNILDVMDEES
T1 sequence (Q06187 whole entry C481S): as the sequence (Q06187 whole entry) above, with C481S counted along it

| SMILES | IC50 [1] [nM] | IC50 [2] [nM] | Brain penetration (result in words) [3] | Kp at 8 h [3] |
| --- | --- | --- | --- | --- |
| COc1ccc(F)cc1C(=O)NCc1ccc(-c2nc(C34CCC(C(=O)N5CCOCC5)(CC3)CC4)n3ncnc(N)c23)cc1 [Compound B, N-(4-(4-amino-7-(4-(morpholine-4-carbonyl)bicyclo[2.2.2]octan-1-yl)imidazo[5,1-f][1,2,4]triazin-5-yl)benzyl)-5-fluoro-2-methoxybenzamide] | 1.2 | 1 | non-brain penetrants | 0.0315 |
| COc1ccc(F)cc1C(=O)NCc1ccc(-c2nc(C34CCC(C(=O)O)(CC3)CC4)n3ncnc(N)c23)cc1 [Compound A, 4-(4-amino-5-(4-((5-fluoro-2-methoxybenzamido)methyl)phenyl)imidazo[5,1-f][1,2,4]triazin-7-yl)bicyclo[2.2.2]octane-1-carboxylic acid] | 1.3 | 0.7 | non-brain penetrants | 0.0355 |

From patent publication US12617788B2, “Bridged bicyclic compounds as BTK inhibitors” (Beijing InnoCare Pharma Tech Co., Ltd., priority 2020, dated 2026)
